Reference: paper PMC9162272 (Journal of Cardiovascular Pharmacology, 2022)
Read-outs that look alike come from different tables or passages of the source.

Biological target: PDE-III (Homo sapiens, UniProt Q14432)
Assay: Phosphodiesterase inhibition, purified PDE-III isozyme
Format: biochemical
Conditions: for PDE-IV Versus PDE-III, IC50 Ratio: selectivity of inhibition of PDE-III over PDE-IV
[1] = read-out: PDE-III IC50, PDE-III isolated from human platelets, 30°C, 30 minutes, [3H]-cAMP 0.1 µM and cAMP 0.1 µM, duplicates

Chain of PDE-III (Q14432 whole entry): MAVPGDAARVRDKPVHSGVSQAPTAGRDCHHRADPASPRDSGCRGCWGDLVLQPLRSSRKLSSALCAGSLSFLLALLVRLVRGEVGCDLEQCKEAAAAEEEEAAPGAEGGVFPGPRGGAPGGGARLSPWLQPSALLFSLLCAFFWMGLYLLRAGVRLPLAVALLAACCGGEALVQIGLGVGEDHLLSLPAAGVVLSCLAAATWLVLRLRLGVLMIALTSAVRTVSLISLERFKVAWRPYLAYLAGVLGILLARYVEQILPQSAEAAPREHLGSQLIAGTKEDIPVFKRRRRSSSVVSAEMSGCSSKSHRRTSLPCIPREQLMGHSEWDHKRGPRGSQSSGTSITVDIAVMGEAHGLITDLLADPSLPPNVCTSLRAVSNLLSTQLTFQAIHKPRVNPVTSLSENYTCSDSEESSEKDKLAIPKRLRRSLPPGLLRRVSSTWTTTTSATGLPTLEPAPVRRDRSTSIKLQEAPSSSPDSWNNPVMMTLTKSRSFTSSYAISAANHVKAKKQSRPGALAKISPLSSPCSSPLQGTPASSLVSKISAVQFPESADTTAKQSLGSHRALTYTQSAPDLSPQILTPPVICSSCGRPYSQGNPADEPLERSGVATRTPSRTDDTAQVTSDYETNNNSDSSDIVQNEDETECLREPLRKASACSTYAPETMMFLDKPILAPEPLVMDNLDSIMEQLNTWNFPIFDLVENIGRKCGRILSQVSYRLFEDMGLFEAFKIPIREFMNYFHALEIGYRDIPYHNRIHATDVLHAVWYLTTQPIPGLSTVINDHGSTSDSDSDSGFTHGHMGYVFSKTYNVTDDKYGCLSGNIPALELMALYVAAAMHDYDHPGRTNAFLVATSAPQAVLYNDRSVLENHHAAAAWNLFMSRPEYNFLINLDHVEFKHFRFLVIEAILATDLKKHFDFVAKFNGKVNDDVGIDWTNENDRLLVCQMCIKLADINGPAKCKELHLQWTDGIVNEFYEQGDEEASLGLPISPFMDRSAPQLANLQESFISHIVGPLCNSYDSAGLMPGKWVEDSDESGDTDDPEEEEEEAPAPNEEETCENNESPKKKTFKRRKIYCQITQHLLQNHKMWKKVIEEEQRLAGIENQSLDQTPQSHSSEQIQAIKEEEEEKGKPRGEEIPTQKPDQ

IC50 | PDE-IV Versus PDE-III, IC50 Ratio | IC50 [1] | Structure (SMILES)
2.1 nM | 7619 |  | C[C@@H]1CC(=O)NN=C1c1ccc(NN=C(C#N)C#N)cc1 [Levosimendan, levosimendan, reference compound]
 | 100 | 5000 nM | C[C@@H]1CC(=O)NN=C1c1ccc(N)cc1 [OR-1855]
 | 3043 | 94 nM | CC(=O)Nc1ccc(C2=NNC(=O)C[C@H]2C)cc1 [OR-1896]
